For 1 compound, inhibition results are on record in ChEMBL document CHEMBL1155186, “O-Spiro C-aryl glucosides as novel sodium-dependent glucose co-transporter 2 (SGLT2) inhibitors” (Bioorg Med Chem Lett, 2009).

A word on the inhibition: it is the relative decrease from the control value, in per cent.

In assay [1] the target is T1, Sodium/glucose cotransporter 1 (Homo sapiens) (UniProt P13866).
T1 sequence (whole entry): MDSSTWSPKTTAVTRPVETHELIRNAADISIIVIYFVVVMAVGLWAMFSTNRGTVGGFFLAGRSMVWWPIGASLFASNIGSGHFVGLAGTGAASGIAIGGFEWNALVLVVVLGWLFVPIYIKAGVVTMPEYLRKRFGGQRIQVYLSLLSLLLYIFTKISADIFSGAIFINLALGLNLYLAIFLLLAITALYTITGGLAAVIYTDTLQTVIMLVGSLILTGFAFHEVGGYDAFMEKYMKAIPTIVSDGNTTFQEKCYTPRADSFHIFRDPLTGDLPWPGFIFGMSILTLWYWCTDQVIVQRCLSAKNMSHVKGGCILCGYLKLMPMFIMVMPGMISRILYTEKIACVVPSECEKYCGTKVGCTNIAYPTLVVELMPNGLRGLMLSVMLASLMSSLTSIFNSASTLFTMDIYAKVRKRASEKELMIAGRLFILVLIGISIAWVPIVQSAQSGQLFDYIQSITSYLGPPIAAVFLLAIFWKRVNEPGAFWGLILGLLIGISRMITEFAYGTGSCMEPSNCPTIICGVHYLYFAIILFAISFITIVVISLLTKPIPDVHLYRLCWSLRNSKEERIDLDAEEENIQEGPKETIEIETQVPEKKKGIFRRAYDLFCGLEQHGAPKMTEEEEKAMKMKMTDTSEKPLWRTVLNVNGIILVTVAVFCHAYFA
To be noted: COS-7, 10 uM.
Description: Inhibition of human SGLT1 expressed in african green monkey COS7 cells assessed as methyl-alpha-D-[U-14C]glucopyranoside uptake at 10 uM by scintillation counting

Assay [2] deals with T2, Sodium/glucose cotransporter 2 (Homo sapiens) (UniProt P31639).
T2 sequence (whole entry): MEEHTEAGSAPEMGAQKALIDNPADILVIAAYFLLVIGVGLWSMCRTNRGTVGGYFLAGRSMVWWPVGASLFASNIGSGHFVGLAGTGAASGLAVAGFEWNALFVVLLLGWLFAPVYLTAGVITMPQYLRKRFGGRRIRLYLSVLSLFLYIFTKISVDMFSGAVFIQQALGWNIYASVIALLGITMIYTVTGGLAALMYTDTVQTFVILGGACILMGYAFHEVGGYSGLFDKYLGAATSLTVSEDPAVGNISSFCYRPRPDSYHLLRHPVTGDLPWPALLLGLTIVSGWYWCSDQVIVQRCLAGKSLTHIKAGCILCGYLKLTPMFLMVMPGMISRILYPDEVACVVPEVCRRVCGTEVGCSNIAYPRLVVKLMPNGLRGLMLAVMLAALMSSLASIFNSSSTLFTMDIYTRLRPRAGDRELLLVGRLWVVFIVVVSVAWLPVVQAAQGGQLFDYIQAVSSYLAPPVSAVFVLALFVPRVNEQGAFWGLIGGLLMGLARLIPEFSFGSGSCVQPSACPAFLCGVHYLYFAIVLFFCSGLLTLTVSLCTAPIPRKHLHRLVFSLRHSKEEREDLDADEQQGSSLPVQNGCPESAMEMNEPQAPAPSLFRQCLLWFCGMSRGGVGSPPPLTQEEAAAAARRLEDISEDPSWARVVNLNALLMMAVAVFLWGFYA
To be noted: 10 nM.
Description: Inhibition of human SGLT2 expressed in HEK293.ETN cells assessed as methyl-alpha-D-[U-14C]glucopyranoside uptake at 10 nM by scintillation counting

Molecules are shown by their SMILES.

On to `CCOc1ccc(Cc2cc([C@@H]3O[C@H](CO)[C@@H](O)[C@H](O)[C@H]3O)ccc2Cl)cc1`, for which the results for the inhibition in assay [1] and in assay [2] were 72.7% and 69.7%, respectively.
